# Assay results published in patent US8389524B2, “Tricyclic nitrogen containing compounds as antibacterial agents” (Glaxo Group Limited, priority 2007, dated 2013).
# Counter-ions that a name gives are not always drawn.
# System: not listed separately
# Assay: Antimicrobial Activity Assay: whole-cell antimicrobial activity by broth microdilution (CLSI M7-A7), MIC
# Type: cell-based, Gram-positive and Gram-negative organisms
# Conditions: against a strain of at least one of the organisms listed; tested in at least one exemplified salt or free base form
# Experimental: Whole-cell antimicrobial activity was determined by broth microdilution using the Clinical and Laboratory Standards Institute (CLSI) recommended procedure, Document M7-A7, “Methods for Dilution Susceptibility Tests for Bacteria that Grow Aerobically”. The compounds were tested in serial two-fold dilutions ranging from 0.016 to 16 mcg/ml.
# The minimum inhibitory concentration (MIC) was determined as the lowest concentration of compound that inhibited visible growth. A mirror reader was used to assist in determining the MIC endpoint.
# Compounds were evaluated against Gram-positive organisms, selected from Staphylococcus aureus, Streptococcus pneumoniae, Streptococcus pyogenes, Enterococcus faecalis and Enterococcus faecium.
# In addition, compounds were evaluated against Gram-negative organisms selected from Haemophilus influenzae, Moraxella catarrhalis, Escherichia coli, Pseudomonas aeruginosa, Proteus mirabilis, Enterobacter cloacae, Enterobacter aerogenes, Klebsiella pneumoniae and Stenotrophomonas maltophilia.
row,Compound,MIC
1,"O=c1ccc2ccc(=O)n3c2n1C[C@H]3CN1CCC(NCc2cc3c(cn2)COC3)CC1 [Example 9, (1R)-1-({4-[(1,3-Dihydrofuro[3,4-c]pyridin-6-ylmethyl)amino]-1-piperidinyl}methyl)-1,2-dihydro-4H,1H-imidazo[1,2,3-ij]-1,8-naphthyridine-4,9-dione hydrochloride]",≤ 4 µg/mL

# System: Mycobacterium tuberculosis H37Rv
# Assay: Mycobacterium tuberculosis H37Rv Inhibition Assay (resazurin, MIC)
# Type: cell-based
# Conditions: ATCC 25618 / H37Rv, 144 h, read-out: MIC value, H37Rv strain (ATCC25618), Middlebrook 7H9+ADC, six days at 37° C., resazurin fluorescence after 48 hours
row,Compound,MIC
1,"O=c1ccc2ncc(=O)n3c2n1C[C@H]3CN1CCC(NCc2cc3c(cc2F)OCCO3)CC1 [Example 26, (2R)-2-[(4-{[(7-Fluoro-2,3-dihydro-1,4-benzodioxin-6-yl)methyl]amino}-1-piperidinyl)methyl]-1,2-dihydro-3H,8H-2a,5,8a-triazaacenaphthylene-3,8-dione hydrochloride]",≤ 1 µg/mL
2,"O=c1ccc2ncc(=O)n3c2n1CC3CN1CCC(NCc2cc3c(cn2)OCCS3)CC1 (racemic) [Example 20, 2-({4-[(2,3-Dihydro[1,4]oxathiino[2,3-c]pyridin-7-ylmethyl)amino]-1-piperidinyl}methyl)-1,2-dihydro-3H,8H-2a,5,8a-triazaacenaphthylene-3,8-dione hydrochloride]",< 2 µg/mL
3,"O=c1ccc2ccc(=O)n3c2n1C[C@H]3CN1CCC(NCc2cc3c(cn2)OCS3)CC1 [Example 5A, (1R)-1-({4-[([1,3]Oxathiolo[5,4-c]pyridin-6-ylmethyl)amino]-1-piperidinyl}methyl)-1,2-dihydro-4H,9H-imidazo[1,2,3-ij]-1,8-naphthyridine-4,9-dione hydrochloride]",< 2 µg/mL
4,"O=c1cnc2ccc(=O)n3c2n1C[C@H]3CN1CCC(NCc2cc3c(cn2)OCS3)CC1 [Example 13A, (1R)-1-({4-[([1,3]Oxathiolo[5,4-c]pyridin-6-ylmethyl)amino]-1-piperidinyl}methyl)-1,2-dihydro-3H,8H-2a,5,8a-triazaacenaphthylene-3,8-dione hydrochloride]",< 2 µg/mL
5,"O=c1ccc2ncc(=O)n3c2n1C[C@H]3CN1CCC(NCc2cc3c(cn2)OCCS3)CC1 [Example 19A, (2R)-2-({4-[(2,3-Dihydro[1,4]oxathiino[2,3-c]pyridin-7-ylmethyl)amino]-1-piperidinyl}methyl)-1,2-dihydro-3H,8H-2a,5,8a-triazaacenaphthylene-3,8-dione hydrochloride]",< 2 µg/mL
6,"O=c1ccc2ccc(=O)n3c2n1C[C@H]3CN1CCC(NCc2ccc3c(c2)OCCC3)CC1 [Example 50, (1R)-1-({4-[(3,4-Dihydro-2H-chromen-7-ylmethyl)amino]-1-piperidinyl}methyl)-1,2-dihydro-4H,9H-imidazo[1,2,3-ij]-1,8-naphthyridine-4,9-dione hydrochloride]",< 2 µg/mL
7,"O=c1ccc2ccc(=O)n3c2n1C[C@H]3CN1CCC(NCc2cc3c(cn2)OCCS3)CC1 [Example 6A, (1R)-1-({4-[(2,3-Dihydro[1,4]oxathiino[2,3-c]pyridin-7-ylmethyl)amino]-1-piperidinyl}methyl)-1,2-dihydro-4H,9H-imidazo[1,2,3-ij]-1,8-naphthyridine-4,9-dione hydrochloride]",< 2 µg/mL
8,"O=c1ccc2ccc(=O)n3c2n1C[C@H]3CN1CCC(NCc2cc3c(cn2)CCC3)CC1 [Example 8, (1R)-1-({4-[(6,7-Dihydro-5H-cyclopenta[c]pyridin-3-ylmethyl)amino]-1-piperidinyl}methyl)-1,2-dihydro-4H,9H-imidazo[1,2,3-ij]-1,8-naphthyridine-4,9-dione hydrochloride]",< 2 µg/mL
9,"O=c1ccc2ncc(=O)n3c2n1C[C@H]3CN1CCC(NCc2ccc3nsnc3c2)CC1 [Example 25, (2R)-2-({4-[(2,1,3-Benzothiadiazol-5-ylmethyl)amino]-1-piperidinyl}methyl)-1,2-dihydro-3H,8H-2a,5,8a-triazaacenaphthylene-3,8-dione hydrochloride]",≤ 1 µg/mL
10,"O=c1ccc2ccc(=O)n3c2n1C[C@H]3CN1CCC(NCc2nc3cccc(F)c3[nH]2)CC1 [Example 46, (1R)-1-[(4-{[(4-Fluoro-1H-benzimidazol-2-yl)methyl]amino}-1-piperidinyl)methyl]-1,2-dihydro-4H,9H-imidazo[1,2,3-ij]-1,8-naphthyridine-4,9-dione dihydrochloride]",< 2 µg/mL
